# Literature values in US9364497B2, “Treatment of cognitive disorders” (Isis Innovation Limited, priority 2010, dated 2016).
# What was measured:
# [1] = tested on: normal participants with baseline tHcy levels >13 μmol/L; conditions: 0.8 mg/d for three years
# [2] = tested on: subjects with mild cognitive impairment; conditions: MCI
# [3] = tested on: mild cognitive impairment; conditions: MCI; over four years
compound,measurement,setting,value
Nc1nc2ncc(CNc3ccc(C(=O)N[C@@H](CCC(=O)O)C(=O)O)cc3)nc2c(=O)[nH]1 [folic acid],effect on cognitive tests,[1],beneficial effect on several cognitive tests
COc1ccc2c3c1O[C@H]1C[C@@H](O)C=C[C@@]31CCN(C)C2 [galantamine],deaths in treatment groups versus placebo,[2],significantly greater number of deaths
CCN(C)C(=O)Oc1cccc([C@H](C)N(C)C)c1 [rivastigmine],benefit on cognitive function,[3],no significant benefit
same,benefit on the progression rate to Alzheimer's Disease,[3],no significant benefit
